# Reference: paper PMC11252418, “Specific glycine-dependent enzyme motion determines the potency of conformation selective inhibitors of threonyl-tRNA synthetase” (Communications Biology, 2024)
# Several values for one entry are separate records, joined by “and”; a condition that tells them apart may be missing. Equal values may be shown once.
# Columns and labels:
# ObaO_S464G [1] = experiment: ATP hydrolysis assay; format: biochemical, Pseudomonas fluorescens; conditions: for ATP hydrolysis activity, inhibitory curve data point: OB, replicates, sheet Fig.S11b
# Method: (§1) 200 nM EcThrRS wide type and mutants, ObaO and ObaO_S464G mutant were incubated with serially diluted OB (0 to 10 μM for EcThrRS, 0 to 40 μM for ObaO) in a buffer containing 25 mM HEPES pH 7.5, 50 mM NaCl, 40 mM MgCl2, 30 mM KCl, 0.01 mg/mL bovine serum albumin (BSA), and 0.004% Tween-20 at 37 °C for 4 h and then mixed 1:1 with a substrate mixture containing 4 μM ATP, 40 μM L-threonine, 25 mM HEPES pH 7.5, 50 mM NaCl, 40 mM MgCl2, 30 mM KCl, 0.01 mg/mL BSA, and 0.004% Tween-20. The ATP hydrolysis reaction was performed at 37 °C for 4 h.
# (§2) After incubation, the detection solution from the Kinase-Glo® luminescent kit (Promega, USA) was added to the reaction system at a 1:1 ratio, and the mixture was gently shaken for 10 min. The chemiluminescence signal was measured using a microplate reader (Tecan, USA). All experiments were performed in four replicates. The data were processed using GraphPad Prism 8 software.
# ObaO_WT [2] = experiment: ATP hydrolysis assay; format: biochemical, Pseudomonas fluorescens; conditions: for ATP hydrolysis activity, inhibitory curve data point: OB, replicates, sheet Fig.S11b
# Method: as §1, §2
# ObaO_S464G [3] = experiment: Thermal shift assay (TSA); format: binding, Pseudomonas fluorescens
# Method: (§3) The EcThrRS_WT and L489M/G463S/G463S_Q484A/G463A/A316N mutant proteins, ObaO_WT and ObaO_S464G mutant proteins were prepared at 2 μM in buffer containing 25 mM Tris-HCl pH 7.5, 200 mM NaCl, and 20 μM OB (GlpBio, US) or BN (GlpBio, US) or ddH2O in equal volumes since the compounds were diluted with ddH2O to 1 mM as stocks. […] SYPRO orange dye (Sigma, USA) was diluted in assay buffer containing 25 mM Tris-HCl pH 7.5 and 200 mM NaCl to a 40× concentration, and was added to the mixture to a final 4× concentration. Aliquots (20 μL) were added to a 96-well PCR plate. After complete mixing, the final solutions were heated from 25 to 95 °C at a rate of 0.015 °C/s, and fluorescence signals were monitored by QuantStudio 3 (Applied Biosystems by Thermo Fisher Scientific, USA). The melting temperature (Tm) was calculated through a previously established method[56],[57].
# ObaO_WT [4] = experiment: Thermal shift assay (TSA); format: binding, Pseudomonas fluorescens
# Method: as §3
# EcThrRS_L489M = target: T1, EcThrRS_L489M (Escherichia coli, UniProt P0A8M3, L489M); experiment: ATP hydrolysis assay; format: biochemical; conditions: for ATP hydrolysis activity, inhibitory curve data point: OB, replicates, sheet Fig.2b
# T1 construct: The E. coli ThrRS (residues 242-642, Supplementary Note 1) wild type; 6xHis (C); made in house; host or cells: E. coli BL21 (DE3)
# T1 sequence (P0A8M3 242-642 L489M): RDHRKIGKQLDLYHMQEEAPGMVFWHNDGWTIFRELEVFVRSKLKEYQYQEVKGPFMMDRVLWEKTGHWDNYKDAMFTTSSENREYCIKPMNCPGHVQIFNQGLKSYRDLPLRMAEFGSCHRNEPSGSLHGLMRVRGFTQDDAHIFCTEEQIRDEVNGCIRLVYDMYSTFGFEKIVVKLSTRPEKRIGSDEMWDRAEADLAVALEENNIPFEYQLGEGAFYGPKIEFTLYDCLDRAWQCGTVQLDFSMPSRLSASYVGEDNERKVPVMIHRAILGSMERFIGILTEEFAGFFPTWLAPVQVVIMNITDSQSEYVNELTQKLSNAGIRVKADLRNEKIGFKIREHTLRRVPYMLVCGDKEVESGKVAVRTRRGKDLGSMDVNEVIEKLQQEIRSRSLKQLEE
# Method: as §1, §2
# EcThrRS_G463S = target: T2, EcThrRS_G463S (Escherichia coli, UniProt P0A8M3, G463S); experiment: ATP hydrolysis assay; format: biochemical; conditions: for ATP hydrolysis activity, inhibitory curve data point: OB, replicates, sheet Fig.2b
# T2 construct: The E. coli ThrRS (residues 242-642, Supplementary Note 1) wild type; 6xHis (C); made in house; host or cells: E. coli BL21 (DE3)
# T2 sequence (P0A8M3 242-642 G463S): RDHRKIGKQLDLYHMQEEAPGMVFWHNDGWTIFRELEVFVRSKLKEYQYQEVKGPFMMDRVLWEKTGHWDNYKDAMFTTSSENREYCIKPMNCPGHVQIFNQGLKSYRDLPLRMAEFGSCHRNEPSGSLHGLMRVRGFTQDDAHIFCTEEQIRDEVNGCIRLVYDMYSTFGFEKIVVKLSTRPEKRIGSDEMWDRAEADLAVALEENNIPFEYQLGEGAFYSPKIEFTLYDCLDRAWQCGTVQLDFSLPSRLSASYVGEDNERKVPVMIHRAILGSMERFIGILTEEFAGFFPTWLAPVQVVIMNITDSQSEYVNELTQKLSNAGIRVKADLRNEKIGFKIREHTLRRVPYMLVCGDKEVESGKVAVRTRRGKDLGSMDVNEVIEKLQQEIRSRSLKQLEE
# Method: as §1, §2
# EcThrRS_G463A = target: T3, EcThrRS_G463A (Escherichia coli, UniProt P0A8M3, G463A); experiment: ATP hydrolysis assay; format: biochemical; conditions: ATP hydrolysis activity
# T3 construct: The E. coli ThrRS (residues 242-642, Supplementary Note 1) wild type; 6xHis (C); made in house; host or cells: E. coli BL21 (DE3)
# T3 sequence (P0A8M3 242-642 G463A): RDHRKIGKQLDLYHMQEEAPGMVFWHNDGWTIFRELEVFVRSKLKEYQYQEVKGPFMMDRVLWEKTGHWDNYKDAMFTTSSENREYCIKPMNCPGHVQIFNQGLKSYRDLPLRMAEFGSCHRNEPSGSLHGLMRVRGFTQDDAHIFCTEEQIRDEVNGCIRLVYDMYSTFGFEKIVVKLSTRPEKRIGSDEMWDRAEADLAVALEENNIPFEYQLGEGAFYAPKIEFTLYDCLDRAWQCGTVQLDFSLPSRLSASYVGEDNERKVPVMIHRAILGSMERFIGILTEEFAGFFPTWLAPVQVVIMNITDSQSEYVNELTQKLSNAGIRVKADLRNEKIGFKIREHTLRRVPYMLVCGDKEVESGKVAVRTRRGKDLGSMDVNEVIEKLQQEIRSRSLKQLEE
# Method: as §1, §2
# EcThrRS_A316N = target: T4, EcThrRS_A316N (Escherichia coli, UniProt P0A8M3, A316N); experiment: ATP hydrolysis assay; format: biochemical; conditions: for ATP hydrolysis activity, inhibitory curve data point: OB, replicates, sheet Fig.S4b
# T4 construct: The E. coli ThrRS (residues 242-642, Supplementary Note 1) wild type; 6xHis (C); made in house; host or cells: E. coli BL21 (DE3)
# T4 sequence (P0A8M3 242-642 A316N): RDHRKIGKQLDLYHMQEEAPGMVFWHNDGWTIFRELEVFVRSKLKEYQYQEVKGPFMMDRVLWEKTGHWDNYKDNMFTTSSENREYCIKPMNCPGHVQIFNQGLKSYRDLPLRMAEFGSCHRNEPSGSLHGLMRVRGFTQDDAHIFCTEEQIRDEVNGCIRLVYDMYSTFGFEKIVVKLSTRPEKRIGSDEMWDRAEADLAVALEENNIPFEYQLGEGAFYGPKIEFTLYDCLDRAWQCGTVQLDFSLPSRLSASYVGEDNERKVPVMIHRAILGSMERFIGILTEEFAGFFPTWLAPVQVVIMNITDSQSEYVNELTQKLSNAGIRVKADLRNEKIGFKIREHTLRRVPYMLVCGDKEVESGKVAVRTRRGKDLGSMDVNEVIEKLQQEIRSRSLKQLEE
# Method: as §1, §2
# [5] = 2 μM protein, 20 μM compound, mean n = 4
compound,measurement,setting,value
"O=C(N[C@@H]1C(=O)O[C@@H]1Cc1ccc([N+](=O)[O-])cc1)c1cccc(O)c1O [OB, Obafluorin]",IC50,ObaO_S464G [1]; ATP hydrolysis activity,3900 nM
same,"ATP hydrolysis activity, inhibitory curve data point","ObaO_S464G [1]; Log10 Conc. 1.290, ObaO_S464G",99.512 and 99.495 and 99.321 and 98.415
same,"ATP hydrolysis activity, inhibitory curve data point","ObaO_S464G [1]; Log10 Conc. 1.591, ObaO_S464G",100.192 and 100.232 and 100.159 and 99.124
same,"ATP hydrolysis activity, inhibitory curve data point","ObaO_S464G [1]; Log10 Conc. 1.892, ObaO_S464G",100.052 and 100.356 and 99.951 and 99.355
same,"ATP hydrolysis activity, inhibitory curve data point","ObaO_S464G [1]; Log10 Conc. 2.193, ObaO_S464G",99.838 and 99.793 and 100.063 and 99.551
same,"ATP hydrolysis activity, inhibitory curve data point","ObaO_S464G [1]; Log10 Conc. 2.494, ObaO_S464G",100.255 and 99.793 and 99.917 and 100.035
same,"ATP hydrolysis activity, inhibitory curve data point","ObaO_S464G [1]; Log10 Conc. 2.796, ObaO_S464G",99.484 and 99.326 and 99.169 and 98.438
same,"ATP hydrolysis activity, inhibitory curve data point","ObaO_S464G [1]; Log10 Conc. 3.097, ObaO_S464G",97.897 and 97.852 and 97.621 and 97.352
same,"ATP hydrolysis activity, inhibitory curve data point","ObaO_S464G [1]; Log10 Conc. 3.398, ObaO_S464G",93.815 and 92.992 and 93.578 and 91.403
same,"ATP hydrolysis activity, inhibitory curve data point","ObaO_S464G [1]; Log10 Conc. 3.699, ObaO_S464G",77.343 and 76.749 and 76.793 and 77.009
same,"ATP hydrolysis activity, inhibitory curve data point","ObaO_S464G [1]; Log10 Conc. 4.000, ObaO_S464G",40.598 and 39.832 and 38.831 and 45.976
same,"ATP hydrolysis activity, inhibitory curve data point","ObaO_S464G [1]; Log10 Conc. 4.301, ObaO_S464G",-1.615 and -1.887 and 0.161 and 3.342
same,inhibitory effect,ObaO_WT [2]; ATP hydrolysis activity,no inhibitory effect
same,"ATP hydrolysis activity, inhibitory curve data point","ObaO_WT [2]; Log10 Conc. 1.290, ObaO_WT",107.974 and 109.176 and 107.694 and 98.285
same,"ATP hydrolysis activity, inhibitory curve data point","ObaO_WT [2]; Log10 Conc. 1.591, ObaO_WT",108.081 and 109.543 and 108.587 and 102.335
same,"ATP hydrolysis activity, inhibitory curve data point","ObaO_WT [2]; Log10 Conc. 1.892, ObaO_WT",104.532 and 105.736 and 104.839 and 104.593
same,"ATP hydrolysis activity, inhibitory curve data point","ObaO_WT [2]; Log10 Conc. 2.193, ObaO_WT",105.347 and 104.330 and 104.759 and 104.369
same,"ATP hydrolysis activity, inhibitory curve data point","ObaO_WT [2]; Log10 Conc. 2.494, ObaO_WT",105.496 and 103.616 and 104.222 and 104.732
same,"ATP hydrolysis activity, inhibitory curve data point","ObaO_WT [2]; Log10 Conc. 2.796, ObaO_WT",106.437 and 103.177 and 103.705 and 104.207
same,"ATP hydrolysis activity, inhibitory curve data point","ObaO_WT [2]; Log10 Conc. 3.097, ObaO_WT",106.181 and 102.182 and 103.687 and 102.015
same,"ATP hydrolysis activity, inhibitory curve data point","ObaO_WT [2]; Log10 Conc. 3.398, ObaO_WT",106.327 and 105.039 and 104.877 and 99.875
same,"ATP hydrolysis activity, inhibitory curve data point","ObaO_WT [2]; Log10 Conc. 3.699, ObaO_WT",106.394 and 102.812 and 104.598 and 101.892
same,"ATP hydrolysis activity, inhibitory curve data point","ObaO_WT [2]; Log10 Conc. 4.000, ObaO_WT",107.419 and 105.942 and 102.834 and 91.914
same,"ATP hydrolysis activity, inhibitory curve data point","ObaO_WT [2]; Log10 Conc. 4.301, ObaO_WT",100.516 and 99.049 and 100.129 and 101.285
same,ΔTm (increase of Tm),ObaO_S464G [3]; [5],14.1 °C
same,"ΔTm, single replicates","ObaO_S464G [3]; source data sheet Fig.S11a, ObaO_S464G, in °C (unit assumed)",14.753 and 14.195 and 14.134 and 13.328
same,ΔTm (increase of Tm),ObaO_WT [4]; [5],3.2 °C
same,"ΔTm, single replicates","ObaO_WT [4]; source data sheet Fig.S11a, ObaO_WT, in °C (unit assumed)",3.257 and 4.712 and 2.142 and 2.576
same,IC50,EcThrRS_L489M; ATP hydrolysis activity,215 nM
same,"ATP hydrolysis activity, inhibitory curve data point","EcThrRS_L489M; Log10 Conc. 3.097, L489M",14.911 and 30.795 and 20.792 and 22.166
same,"ATP hydrolysis activity, inhibitory curve data point","EcThrRS_L489M; Log10 Conc. 3.398, L489M",25.404 and -0.594 and -13.763 and 3.682
same,"ATP hydrolysis activity, inhibitory curve data point","EcThrRS_L489M; Log10 Conc. 3.699, L489M",26.774 and 18.620 and -26.210 and 6.396
same,"ATP hydrolysis activity, inhibitory curve data point","EcThrRS_L489M; Log10 Conc. 4.000, L489M",5.096 and 5.493 and 1.083 and 8.709
same,inhibition at 5 µM,EcThrRS_G463S; 5 μM OB,~10%
same,inhibitory activity,EcThrRS_G463S; ATP hydrolysis activity,poor activity
same,"ATP hydrolysis activity, inhibitory curve data point","EcThrRS_G463S; Log10 Conc. 1.279, G463S",106.793 and 98.818 and 94.863 and 99.954
same,"ATP hydrolysis activity, inhibitory curve data point","EcThrRS_G463S; Log10 Conc. 1.597, G463S",100.752 and 93.821 and 90.230 and 89.239
same,"ATP hydrolysis activity, inhibitory curve data point","EcThrRS_G463S; Log10 Conc. 1.892, G463S",119.110 and 112.303 and 110.507 and 107.832
same,"ATP hydrolysis activity, inhibitory curve data point","EcThrRS_G463S; Log10 Conc. 2.193, G463S",113.765 and 106.055 and 104.056 and 103.914
same,"ATP hydrolysis activity, inhibitory curve data point","EcThrRS_G463S; Log10 Conc. 2.495, G463S",113.955 and 101.766 and 100.028 and 98.945
same,"ATP hydrolysis activity, inhibitory curve data point","EcThrRS_G463S; Log10 Conc. 2.796, G463S",114.391 and 100.345 and 101.496 and 101.074
same,"ATP hydrolysis activity, inhibitory curve data point","EcThrRS_G463S; Log10 Conc. 3.097, G463S",109.765 and 91.814 and 95.122 and 94.032
same,"ATP hydrolysis activity, inhibitory curve data point","EcThrRS_G463S; Log10 Conc. 3.398, G463S",99.125 and 85.681 and 84.901 and 83.398
same,"ATP hydrolysis activity, inhibitory curve data point","EcThrRS_G463S; Log10 Conc. 3.699, G463S",98.676 and 85.750 and 87.909 and 87.887
same,"ATP hydrolysis activity, inhibitory curve data point","EcThrRS_G463S; Log10 Conc. 4.000, G463S",100.800 and 85.432 and 86.068 and 84.275
same,inhibitory effect,EcThrRS_G463A,no inhibitory effect
same,IC50,EcThrRS_A316N; ATP hydrolysis activity,848 nM
same,"ATP hydrolysis activity, inhibitory curve data point","EcThrRS_A316N; Log10 Conc. 0.690, A316N",85.962 and 86.560 and 99.695 and 84.767
same,"ATP hydrolysis activity, inhibitory curve data point","EcThrRS_A316N; Log10 Conc. 0.991, A316N",88.637 and 98.163 and 100.359 and 100.821
same,"ATP hydrolysis activity, inhibitory curve data point","EcThrRS_A316N; Log10 Conc. 1.290, A316N",94.677 and 95.220 and 104.669 and 107.135
same,"ATP hydrolysis activity, inhibitory curve data point","EcThrRS_A316N; Log10 Conc. 1.591, A316N",79.114 and 84.617 and 87.973 and 87.592
same,"ATP hydrolysis activity, inhibitory curve data point","EcThrRS_A316N; Log10 Conc. 1.892, A316N",95.097 and 93.442 and 93.401 and 99.302
same,"ATP hydrolysis activity, inhibitory curve data point","EcThrRS_A316N; Log10 Conc. 2.193, A316N",78.735 and 83.708 and 90.525 and 92.235
same,"ATP hydrolysis activity, inhibitory curve data point","EcThrRS_A316N; Log10 Conc. 2.494, A316N",68.683 and 74.410 and 84.890 and 82.431
same,"ATP hydrolysis activity, inhibitory curve data point","EcThrRS_A316N; Log10 Conc. 2.796, A316N",50.753 and 55.935 and 67.595 and 73.554
same,"ATP hydrolysis activity, inhibitory curve data point","EcThrRS_A316N; Log10 Conc. 3.097, A316N",29.054 and 40.656 and 45.720 and 53.072
same,"ATP hydrolysis activity, inhibitory curve data point","EcThrRS_A316N; Log10 Conc. 3.398, A316N",-3.828 and 7.860 and 7.462 and 26.771
same,"ATP hydrolysis activity, inhibitory curve data point","EcThrRS_A316N; Log10 Conc. 3.699, A316N",7.311 and 15.246 and 17.984 and 36.982
